The target in this assay is T1, Recombinant human renin (Homo sapiens, UniProt P00797).
T1 construct: isolate the active form (residues 67-406); made in house; host or cells: FreeStyle 293-F cells (transient expression of pcDNA3.1(+)/hREN)
T1 sequence (P00797 67-406): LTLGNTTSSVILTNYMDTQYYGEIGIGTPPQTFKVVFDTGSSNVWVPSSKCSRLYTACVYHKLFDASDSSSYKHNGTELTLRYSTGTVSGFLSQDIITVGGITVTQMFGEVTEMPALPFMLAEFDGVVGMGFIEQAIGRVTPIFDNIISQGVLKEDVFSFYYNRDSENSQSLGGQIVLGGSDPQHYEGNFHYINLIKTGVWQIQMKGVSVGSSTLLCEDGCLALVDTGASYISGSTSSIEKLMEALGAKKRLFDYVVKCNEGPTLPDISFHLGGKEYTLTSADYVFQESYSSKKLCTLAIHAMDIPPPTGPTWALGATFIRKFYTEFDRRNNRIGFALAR
The experiment in a line: In vitro enzymatic activity assay of Renin inhibitors (fluorescence, QXL520/HiLyteFluo488 peptide substrate). The settings on record: recombinant human renin 3 nM, 1 μM substrate, 37° C., pH 7.4; values given as ranges; read-out: IC50 of Exemplified Compounds Against Renin. The class given is biochemical. A digest of the protocol:
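Recombinant human renin (active form, residues 67-406; 3 nM final) pre-incubated 10 min at 37 °C with compounds in Hepes buffer pH 7.4 with 0.1 mg/ml BSA (optionally plus 2% BSA), 5% DMSO. Reaction started with 1 μM FRET peptide substrate; fluorescence (ex 485/em 538 nm) change over 1 h at 37 °C versus vehicle gives % inhibition, and pIC50/IC50 come from curve fitting.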

The source of these data is US20100210635A1, “RENIN INHIBITORS” (Takeda Pharmaceutical Company Limited, priority 2006, published 2010).

SMILES strings stand for the structures. A value given as a limit tells only on which side of the number the result lay.

As a reminder, the IC50 is the concentration at which inhibition is half-maximal. For the molecule `O=C(CCc1ccccc1Cc1ccc(Cl)cc1)N1CCNC[C@H]1Cc1ccccc1` [Example 56, (R)-1-(2-benzylpiperazin-1-yl)-3-(2-(4-chlorobenzyl)phenyl)propan-1-one], the IC50 was below 500 nM.

`COCCCOc1ccccc1CCC(=O)N1CCNC[C@H]1Cc1ccccc1` [Example 75, (R)-1-(2-benzylpiperazin-1-yl)-3-(2-(3-methoxypropoxy)phenyl)-propan-1-one]: the IC50 fell in the range of 500 to 5000 nM.

With `CC(=O)NCCc1ccccc1Cc1ccccc1CCC(=O)N1CCNC[C@H]1Cc1ccc(C(=O)NS(C)(=O)=O)cc1` [Example 93, (R)-4-((1-(3-(2-(2-(2-acetamidoethyl)benzyl)phenyl)propanoyl)piperazin-2-yl)methyl)-N-(methylsulfonyl)benzamide], the IC50 was below 500 nM.

Regarding `O=C(Cc1ccccc1-c1ccccc1Cl)N1CCNC[C@H]1Cc1ccccc1` [Example 11, 1-((R)-2-Benzylpiperazin-1-yl)-2-(2′-chlorobiphenyl-2-yl)ethanone], the IC50 fell in the range of 500 to 5000 nM.

With `CC(=O)NCc1ccc(C)nc1Oc1ccc(C)cc1CCC(=O)N1CCNC[C@H]1Cc1ccccc1` [Example 42, (R)—N-((2-(2-(3-(2-benzylpiperazin-1-yl)-3-oxopropyl)-4-methylphenoxy)-6-methylpyridin-3-yl)methyl)acetamide], the IC50 lay within 500 to 5000 nM.

In the case of `C[C@H](CC(=O)N1CCNC[C@H]1Cc1ccccc1)c1ccccc1` [Example 17, (R)-1-((R)-2-Benzylpiperazin-1-yl)-3-phenylbutan-1-one], the IC50 fell in the range of 500 to 5000 nM.
